The values that follow come from ChEMBL document CHEMBL1201862, “PubChem BioAssay data set” (2004).

Among the test systems are NCI-H226; DU-145; Malme-3M; CAKI-1; NCI-H23; PC-3; SF-539; HOP-92; HT-29; A549; SF-268; LOX IMVI; M14; KM12; COLO 205; OVCAR-5; MDA-MB-231; MCF7; HCT-116; BT-549.
What all share (assay): NCI tumour cell line growth inhibition, 48 h

The structures appear in SMILES notation.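 Cultured in 96-well plates, cells were exposed to test compound for 48 hours across five concentrations. At the GI50, growth is halved.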 The source made the active and inactive calls. Rule as the data show it: active = GI50 up to about 1.1 µM and inactive = higher. Where only a bound is given, the exact number is not on record here.

For the molecule `O=C1NC2C(=CC(O)C(O)C2O)c2cc3c(cc21)OCO3` (stereo unspecified), the GI50 in the experiment on NCI-H226 is 0.504 µM (active); in the experiment with DU-145, 0.056 µM (active); in the experiment with Malme-3M, 0.488 µM (active); with CAKI-1 it was 0.28 µM (active); in the experiment on NCI-H23, 0.459 µM (active); with PC-3 it was 0.141 µM (active). Also, the GI50 was 0.458 µM (active) in the experiment on SF-539; 0.904 µM (active) in the experiment with HOP-92; 0.345 µM (active) in the experiment with HT-29; 0.52 µM (active) in the experiment on A549; 0.171 µM (active) in the experiment on SF-268; 0.308 µM (active) in the experiment on LOX IMVI. For the same molecule, the GI50 was 0.244 µM (active) with M14; 0.272 µM (active) in the experiment on KM12; 0.2 µM (active) in the experiment on COLO 205; 0.94 µM (active) in the experiment on OVCAR-5; 0.0486 µM (active) in the experiment with MDA-MB-231; 0.338 µM (active) in the experiment with MCF7. Besides, the GI50 with HCT-116 is 0.15 µM (active).

In the case of `Cc1c(/N=N/c2ccc(Cl)cc2)c(C)n(C2OC(CO)C(O)C(O)C2O)c(=S)c1C#N` (stereo unspecified), the GI50 in the experiment on NCI-H226 is 25.3 µM (inactive); with DU-145, 20.5 µM (inactive); in the experiment with Malme-3M, 22.5 µM (inactive); in the experiment with CAKI-1, 64.1 µM (inactive); in the experiment with NCI-H23 it was 30 µM (inactive); in the experiment with PC-3, 23.4 µM (inactive). Besides, the GI50 in the experiment on SF-539 is 20.4 µM (inactive); with HOP-92 it was 31.5 µM (inactive); in the experiment on HT-29, 32.7 µM (inactive); in the experiment with A549, 22 µM (inactive); in the experiment with SF-268 it was 16 µM (inactive); in the experiment with LOX IMVI, 17.3 µM (inactive). The GI50 in the experiment with M14 was 20 µM (inactive); in the experiment with KM12, 24.8 µM (inactive); in the experiment with COLO 205, 19.3 µM (inactive); in the experiment with OVCAR-5 it was 30.5 µM (inactive); with MDA-MB-231, 18.4 µM (inactive); in the experiment on MCF7, 28.6 µM (inactive). Moreover, in the experiment with HCT-116, the GI50 was 15.1 µM (inactive).

Consider `Cc1ccc(/C=N/Nc2nc3ccccc3s2)s1`, for which the GI50 was > 100 µM (inactive) in the experiment with NCI-H226; > 100 µM (inactive) in the experiment with DU-145; > 100 µM (inactive) with Malme-3M; 79.3 µM (inactive) with CAKI-1; > 100 µM (inactive) with NCI-H23; 27.9 µM (inactive) in the experiment with PC-3. Besides, the GI50 with SF-539 was 91.8 µM (inactive); with HOP-92, > 100 µM (inactive); with HT-29 it was 40.8 µM (inactive); in the experiment on A549, > 100 µM (inactive); in the experiment with SF-268, 49.8 µM (inactive); with LOX IMVI it was > 100 µM (inactive). Also, the GI50 was > 100 µM (inactive) in the experiment with M14; 49.1 µM (inactive) in the experiment on KM12; > 100 µM (inactive) in the experiment with COLO 205; > 100 µM (inactive) in the experiment with OVCAR-5; 24.7 µM (inactive) in the experiment with MDA-MB-231; 5.53 µM (inactive) in the experiment with MCF7. In addition, in the experiment with HCT-116, the GI50 is > 100 µM (inactive).

Consider `CC1=C(c2ccc(C)cc2)NC(=S)C(C)C(c2ccc(C)cc2)=N1` (stereo unspecified), for which the GI50 was > 100 µM (inactive) in the experiment with NCI-H226; > 100 µM (inactive) in the experiment on DU-145; 72.3 µM (inactive) in the experiment with BT-549; 59 µM (inactive) with Malme-3M; > 100 µM (inactive) in the experiment on CAKI-1; 37 µM (inactive) in the experiment on NCI-H23. For the same molecule, the GI50 in the experiment on SF-539 is 92.5 µM (inactive); with HT-29 it was 65.6 µM (inactive); in the experiment on A549 it was 81.5 µM (inactive); in the experiment with SF-268, > 100 µM (inactive); in the experiment on LOX IMVI it was 76.2 µM (inactive); in the experiment with KM12, 49.7 µM (inactive). The GI50 with COLO 205 was > 100 µM (inactive); in the experiment on OVCAR-5 it was > 100 µM (inactive); with MDA-MB-231, > 100 µM (inactive); in the experiment on MCF7, 42 µM (inactive); with HCT-116, 58.5 µM (inactive).

With `CC1(C)CC(C#Cc2ccccc2)CC(C)(C)N1O`, the GI50 with NCI-H226 is 20.9 µM (inactive); in the experiment with DU-145 it was 16.1 µM (inactive); in the experiment on Malme-3M, 16.8 µM (inactive); in the experiment with CAKI-1, 20.6 µM (inactive); in the experiment with NCI-H23, 15.7 µM (inactive); in the experiment with PC-3, 11.6 µM (inactive). Also, the GI50 is 20.6 µM (inactive) with SF-539; 15.2 µM (inactive) in the experiment on HOP-92; 14.2 µM (inactive) in the experiment with HT-29; 22.5 µM (inactive) with A549; 20.7 µM (inactive) in the experiment on SF-268; 15.5 µM (inactive) in the experiment on LOX IMVI. Moreover, the GI50 was 19.1 µM (inactive) in the experiment with M14; 17.3 µM (inactive) with KM12; 20.6 µM (inactive) with COLO 205; 22.1 µM (inactive) in the experiment on OVCAR-5; 15.2 µM (inactive) in the experiment with MDA-MB-231; 16.5 µM (inactive) in the experiment with MCF7. The GI50 with HCT-116 is 20 µM (inactive).

As to `COCCCNC(=O)C1=C(C)NC(C)=C(C(=O)NCCCOC)C1`, the GI50 was > 100 µM (inactive) with NCI-H226; > 100 µM (inactive) with DU-145; 18.1 µM (inactive) with Malme-3M; > 100 µM (inactive) with CAKI-1; > 100 µM (inactive) in the experiment on NCI-H23; > 100 µM (inactive) with PC-3. For the same molecule, the GI50 in the experiment with SF-539 was > 100 µM (inactive); with HOP-92 it was 89.3 µM (inactive); in the experiment on HT-29 it was > 100 µM (inactive); with A549, > 100 µM (inactive); in the experiment with SF-268, > 100 µM (inactive); in the experiment with LOX IMVI, > 100 µM (inactive). Further, the GI50 in the experiment with M14, in the experiment on KM12, in the experiment on COLO 205, with OVCAR-5, with MDA-MB-231 and in the experiment on MCF7 was > 100 µM (inactive) each time. For the same molecule, in the experiment with HCT-116, the GI50 is > 100 µM (inactive).

Take `CCCNC(=O)Cn1c(C)cc2ccccc21`: the GI50 in the experiment with NCI-H226, in the experiment with DU-145, with BT-549, in the experiment with Malme-3M, in the experiment with CAKI-1 and with NCI-H23 was > 100 µM (inactive) each time. For the same molecule, the GI50 in the experiment with PC-3, with SF-539, in the experiment on HOP-92, in the experiment on HT-29, in the experiment with A549 and in the experiment with SF-268 was > 100 µM (inactive) each time. In addition, the GI50 in the experiment with LOX IMVI, in the experiment with M14, in the experiment with KM12, in the experiment on COLO 205, in the experiment on OVCAR-5 and with MCF7 was > 100 µM (inactive) each time. For the same molecule, the GI50 with HCT-116 is > 100 µM (inactive).

In the case of `Cc1nc2ccccc2c(-n2cccn2)c1CCn1cccn1`, the GI50 in the experiment on NCI-H226, with DU-145, in the experiment on Malme-3M, in the experiment on CAKI-1, in the experiment with NCI-H23 and with PC-3 was > 100 µM (inactive) each time. For the same molecule, the GI50 is > 100 µM (inactive) in the experiment on SF-539; 52.8 µM (inactive) in the experiment on HOP-92; > 100 µM (inactive) in the experiment with HT-29; > 100 µM (inactive) in the experiment on A549; > 100 µM (inactive) with SF-268; 50.6 µM (inactive) with LOX IMVI. In addition, the GI50 with M14 is > 100 µM (inactive); in the experiment on KM12, > 100 µM (inactive); in the experiment on COLO 205, 96.6 µM (inactive); with OVCAR-5 it was > 100 µM (inactive); in the experiment on MDA-MB-231, 51.4 µM (inactive); with MCF7 it was > 100 µM (inactive). Moreover, in the experiment with HCT-116, the GI50 is > 100 µM (inactive).

Turning to `N#Cc1c(N)c(-c2ccc(Cl)cc2)c(F)c2ccccc12`, the GI50 in the experiment with NCI-H226, with BT-549, in the experiment on Malme-3M, in the experiment on CAKI-1, in the experiment on NCI-H23 and in the experiment on PC-3 was > 100 µM (inactive) in each case. Moreover, the GI50 in the experiment with SF-539 is > 100 µM (inactive); with HOP-92 it was 3.98 µM (inactive); with HT-29, 75.5 µM (inactive); with A549 it was > 100 µM (inactive); with SF-268, 9.82 µM (inactive); in the experiment on LOX IMVI, 94.2 µM (inactive). Besides, the GI50 in the experiment on M14 was > 100 µM (inactive); with KM12, > 100 µM (inactive); in the experiment with COLO 205, > 100 µM (inactive); in the experiment on OVCAR-5 it was > 100 µM (inactive); in the experiment with MDA-MB-231 it was 66.2 µM (inactive); in the experiment with MCF7 it was 6.49 µM (inactive). Also, the GI50 with HCT-116 was > 100 µM (inactive).

As to `OC1CN=C2c3ccccc3C(O)(c3ccc(Cl)cc3)N2C1` (stereo unspecified), the GI50 is 83.4 µM (inactive) with NCI-H226; > 100 µM (inactive) in the experiment on DU-145; 31.7 µM (inactive) in the experiment on Malme-3M; > 100 µM (inactive) in the experiment with CAKI-1; 53.3 µM (inactive) with NCI-H23; 41.9 µM (inactive) in the experiment on PC-3. For the same molecule, the GI50 in the experiment on SF-539 was 32.2 µM (inactive); in the experiment on HOP-92, 22 µM (inactive); in the experiment on HT-29, 32.9 µM (inactive); with A549, > 100 µM (inactive); in the experiment with SF-268, 32 µM (inactive); in the experiment on LOX IMVI, 45.4 µM (inactive). Besides, the GI50 with M14 is 14.8 µM (inactive); in the experiment on KM12 it was 52.4 µM (inactive); in the experiment with COLO 205, 19.5 µM (inactive); in the experiment on OVCAR-5 it was 27 µM (inactive); in the experiment with MDA-MB-231 it was 57.8 µM (inactive); in the experiment on MCF7 it was 48.2 µM (inactive). Besides, the GI50 in the experiment with HCT-116 is 35.6 µM (inactive).

Consider `C=CCOn1c(C=C)nc2ccc(C)cc21`, for which the GI50 in the experiment with NCI-H226 is 20.2 µM (inactive); in the experiment with BT-549, 19.7 µM (inactive); in the experiment with Malme-3M it was 18 µM (inactive); in the experiment on CAKI-1, 20.4 µM (inactive); with NCI-H23, 19.8 µM (inactive); in the experiment on PC-3 it was 12.9 µM (inactive). Besides, the GI50 in the experiment with HOP-92 is 34.9 µM (inactive); with HT-29, 14.1 µM (inactive); in the experiment on A549 it was 22.7 µM (inactive); with SF-268, 24 µM (inactive); in the experiment with LOX IMVI, 12.8 µM (inactive); in the experiment on M14, 16.5 µM (inactive). Further, the GI50 with KM12 is 17.3 µM (inactive); with COLO 205, 13.6 µM (inactive); with OVCAR-5 it was 18.4 µM (inactive); in the experiment on MDA-MB-231, 16.7 µM (inactive); in the experiment on MCF7 it was 10.1 µM (inactive); with HCT-116, 12.1 µM (inactive).
